# Where two headings read alike, the source gives them in different places.
# Legend:
# hela cells = assay: Test for inhibition of EGF-stimulated proliferation of tumor cells (hela, MTT); type: cell-based; details: 65 h; for inhibition at 1 µg/mL / inhibition at 5 µg/mL / inhibition at 0.2 µg/mL / inhibition at 25 µg/mL: Homo sapiens; for inhibition at 1 µg/mL: read-out: EGF stimulation % inhibition at 1 μg/ml; for inhibition at 5 µg/mL: read-out: EGF stimulation % inhibition at 5 μg/ml; for inhibition at 0.2 µg/mL: read-out: EGF stimulation % inhibition at 0.2 μg/ml; for inhibition at 25 µg/mL: read-out: EGF stimulation % inhibition at 25 μg/ml
# Experimental: Test for inhibition of EGF- or bFGF-stimulated proliferation of tumor cells
# 2×10^3 hela cells per well were inoculated into a 96-well microtiter plate (in RPMI+1% FCS ). After 24 h, the medium was changed to RPMI+0.5% FCS and various concentrations of the test substance±EGF (0.1 nM)/bFGF (1 ng/ml) were added. Each group consisted of 4 wells; the control was only incubated±growth factor. After 65 h, 50 μof MTT (2.5 mg/ml in PBS) were added and the supernatant was removed after 7 h. The colored substance formed by the living cells was dissolved by addition of 100 μl of DMSO/well. The absorption was measured at 492 nm for each well with the aid of a 340 CC Multiscan photometer (Flow).
# The mean value is formed from the 4 wells of a group and the absorption difference between the controls± growth factor (A) and between the groups with test substance± growth factor (B) is determined.
# [1] = target: T1, EGF receptor tyrosine kinase (EGFRTK) (Homo sapiens, UniProt P00533); assay: biochemical
# T1 construct: This cell line expresses a large number of EGF receptors which have tyrosine kinase activity on the cell surface; endogenous in cells; host or cells: A 431 (ATCC CRL 1555), membrane preparation
# T1 sequence (P00533 25-1210): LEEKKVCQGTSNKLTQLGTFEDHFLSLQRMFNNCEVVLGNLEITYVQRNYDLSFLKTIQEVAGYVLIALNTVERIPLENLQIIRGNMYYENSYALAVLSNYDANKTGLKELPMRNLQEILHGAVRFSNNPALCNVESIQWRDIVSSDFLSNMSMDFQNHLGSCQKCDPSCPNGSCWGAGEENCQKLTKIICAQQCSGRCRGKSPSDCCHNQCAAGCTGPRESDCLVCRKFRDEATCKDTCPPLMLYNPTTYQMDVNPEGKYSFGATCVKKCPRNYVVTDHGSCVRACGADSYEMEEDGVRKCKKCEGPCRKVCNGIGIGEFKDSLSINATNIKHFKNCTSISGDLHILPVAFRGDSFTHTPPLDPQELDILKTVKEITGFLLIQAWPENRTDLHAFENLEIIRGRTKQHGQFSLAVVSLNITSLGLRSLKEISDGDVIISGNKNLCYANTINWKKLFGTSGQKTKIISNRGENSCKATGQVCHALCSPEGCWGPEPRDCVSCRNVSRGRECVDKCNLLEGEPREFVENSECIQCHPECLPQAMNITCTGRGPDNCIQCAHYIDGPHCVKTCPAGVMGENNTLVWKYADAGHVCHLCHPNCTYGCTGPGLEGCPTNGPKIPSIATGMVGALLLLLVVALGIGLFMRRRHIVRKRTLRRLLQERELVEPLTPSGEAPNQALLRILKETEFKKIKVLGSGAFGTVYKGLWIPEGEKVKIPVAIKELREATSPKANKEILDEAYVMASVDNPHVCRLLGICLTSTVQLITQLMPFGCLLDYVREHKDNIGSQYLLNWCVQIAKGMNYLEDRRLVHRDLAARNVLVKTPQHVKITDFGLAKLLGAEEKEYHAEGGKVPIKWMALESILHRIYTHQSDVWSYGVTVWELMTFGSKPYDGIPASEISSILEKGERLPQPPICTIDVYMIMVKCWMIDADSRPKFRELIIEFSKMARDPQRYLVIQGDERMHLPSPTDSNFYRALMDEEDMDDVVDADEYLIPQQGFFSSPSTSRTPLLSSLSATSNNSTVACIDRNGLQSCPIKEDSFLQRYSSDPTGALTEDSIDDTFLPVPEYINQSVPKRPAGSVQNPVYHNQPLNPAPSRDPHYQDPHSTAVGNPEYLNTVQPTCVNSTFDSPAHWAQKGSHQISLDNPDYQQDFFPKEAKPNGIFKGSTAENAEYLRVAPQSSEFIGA
# Experimental: Test for EGF receptor tyrosine kinase inhibition
# This cell line expresses a large number of EGF receptors which have tyrosine kinase activity on the cell surface. The cells were cultured almost to confluence, washed with PBS (phosphate buffered saline, pH 7.2), scraped off the culture flask and incubated at 4° C. for 1 h, subjected to 20 strokes in a Potter and centrifuged at 1000 g for 30'. The supernatant was centrifuged at 20000 g for a further 20 min and the pellet was taken up in 100 μl per 1×10^6 cells as the membrane preparation.
# The tyrosine kinase activity of the EGF receptor (EGFRTK) was measured using poly(Glu, Ala, Tyr), 6:3:1, as the substrate. […] After 15'at 30° C., the substrate was precipitated with 10% TCA (trichloroacetic acid), filtered on a millititer filtration plate (Millipore Corporation, Massachusetts, USA), washed and dried. The incorporation of ^32 P was determined by means of a liquid scintillation counter.
# [2] = test system: cAMP-dependent protein kinase (PKA); assay: Test for 3',5'-cAMP-dependent protein kinase inhibition (PKA catalytic subunit, Kemptide substrate); type: biochemical; details: 40 μM ATP, 15' at 30° C.
# Experimental: Test for 3',5'-cAMP-dependent protein kinase inhibition
# The catalytic subunit of the cAMP-dependent protein kinase (PKA) (Sigma) was reconstituted as described by Sigma (Sigma Chemical Co., St. Louis, Mo. USA). The enzyme activity was measured using Kemptide (Sigma) (Leu-Arg-Arg-Ala-Ser-Leu-Gly) as a substrate. […] The reaction was initiated by addition of gamma-^32 P ATP (40 μM) After 15'at 30° C., an aliquot part was added to p81 ion exchanger (2×2 cm; Whatman Paper Ltd., Great Britain), immersed in 75 mM H3 PO4, washed, dried, and the incorporation of ^32 P was determined by means of a liquid scintillation counter.
# [3] = 1 μg/ml, hela cells, EGF 0.1 nM, tox = toxic
# [4] = 5 μg/ml, hela cells, EGF 0.1 nM, tox = toxic
# [5] = A 431 membranes, 1000 nM EGF, 32 μM ATP, 15' at 30° C., max. 51 μg/ml, read-out: EGFRTK IC50 (converted)
# [6] = 25 μg/ml, hela cells, EGF 0.1 nM, tox = toxic
SMILES,"IC50 [1, 5]",PKA % inhib. at 40 μg/ml [2],inhibition at 5 µg/mL (hela cells; [4]),EGF stimulation % inhibition at 25 μg/ml (hela cells; [6]),other results
Oc1ccc(O)cc1 [Hydroquinone],0.908 µM,,,,inhibition at 1 µg/mL (hela cells; HeLa): 29%; inhibition at 5 µg/mL (hela cells; HeLa): 43%
Cc1cc(O)c2ccccc2c1O [Menadiol],150 µM,0%,,,
"Cc1c(O)ccc(O)c1C [2,3-Dimethylhydroquinone]",4.64 µM,71%,17%,tox,
"Oc1ccc(O)c2ccccc12 [1,4-Naphthodiol]",,76%,,,EGF stimulation % inhibition at 1 μg/ml (hela cells; [3]): tox; inhibition at 0.2 µg/mL (hela cells; HeLa): 29%; IC50 [1]: 9.36 µM
O=C1C=CC(=O)C(Cl)=C1 [2-Chlorobenzoquinone],,29%,,tox,inhibition at 5 µg/mL (hela cells; HeLa): 29%; IC50 [1]: 9.68 µM
CC(C)(C)c1cc(O)ccc1O [2-tert-Butylhydroquinone],5.72 µM,22%,,,inhibition at 1 µg/mL (hela cells; HeLa): 21%; inhibition at 5 µg/mL (hela cells; HeLa): 52%
O=C1C=CC(=O)C=C1.Oc1ccc(O)cc1 [Quinhydrone],,0%,,,"EGF stimulation % inhibition at 1 μg/ml (hela cells; [3]): 12%; EGF stimulation % inhibition at 5 μg/ml (hela cells; [4]): 64%; EGFRTK IC50 ([1]; A 431 membranes, 1000 nM EGF, 32 μM ATP, 15' at 30° C., max. 51 μg/ml): 0.126 µg/mL"
O=C1C=CC(=O)c2ccccc21 [Naphthoquinone],,,,,"inhibition at 0.2 µg/mL (hela cells; 0.2 μg/ml, hela cells, EGF 0.1 nM): 11%; IC50 [1]: 1.26 µM"
O=S(=O)([O-])c1cc(O)ccc1O.[K+],8.06 µM,1%,,,inhibition at 5 µg/mL (hela cells; HeLa): 6%; inhibition at 25 µg/mL (hela cells; HeLa): 14%
O=C1C=CC(=O)C=C1 [Benzoquinone],,45%,55%,,inhibition at 1 µg/mL (hela cells; [3]): 36%; IC50 [1]: 0.463 µM
Oc1ccc(O)c(Cl)c1 [2-Chlorohydroquinone],,0%,46%,tox,IC50 [1]: 13.1 µM
"COC(=O)[C@H](Cc1c[nH]cn1)N=Cc1cc(O)ccc1O [Ex. 5, (S)-α-N-(2,5-Dihydroxybenzylidene)histidine methyl ester]",,0%,,,inhibition at 5 µg/mL (hela cells; HeLa): 10%; inhibition at 25 µg/mL (hela cells; HeLa): 44%; IC50 [1]: 43.7 µM
Cc1cc(O)ccc1O [2-Methylhydroquinone],8.86 µM,46%,66%,,inhibition at 1 µg/mL (hela cells; [3]): 21%
"Oc1ccc(O)c(O)c1 [1,2,4-Trihydroxybenzene]",190 µM,0%,,,EGF stimulation % inhibition at 5 μg/ml (hela cells; [4]): tox; inhibition at 1 µg/mL (hela cells; HeLa): 5%
Oc1ccccc1O [Pyrocatechol],,0%,,,inhibition at 0.2 µg/mL (hela cells; HeLa): 16%; inhibition at 1 µg/mL (hela cells; HeLa): 35%; IC50 [1]: 14.5 µM
"O=C1C=CC(=O)c2cc3ccccc3cc21 [1,4-Anthraquinone]",2.79 µM,,,,EGF stimulation % inhibition at 5 μg/ml (hela cells; [4]): tox; inhibition at 1 µg/mL (hela cells; [3]): 33%

# Continued, in another order:
"IC50 [1, 5]",PKA % inhib. at 40 μg/ml [2],SMILES,inhibition at 5 µg/mL (hela cells; [4]),EGF stimulation % inhibition at 25 μg/ml (hela cells; [6]),other results
145 to 217 µM,,O=Cc1cc(O)ccc1O [Gentisaldehyde],16%,,inhibition at 1 µg/mL (hela cells; [3]): 0%
46.3 µM,0%,"CC(C)N=Cc1cc(O)ccc1O [Ex. 8, 2,5-Dihydroxy-N-isopropylbenzaldimine]",28%,tox,
12.5 µM,0%,"Oc1ccc(O)c(C=NN2CCOCC2)c1 [Ex. 11, 2,5-Dihydroxy-N-morpholinobenzaldimine]",17%,tox,
44.7 µM,61%,"Oc1ccc(O)c(C=NC2CCCCC2)c1 [N-Cyclohexyl-2,5-dihydroxybenzaldimine]",39%,,inhibition at 25 µg/mL (hela cells; [6]): 64%
7.66 µM,63%,"CN(C)N=Cc1cc(O)ccc1O [Ex. 4, 2,5-Dihydroxy-N,N-dimethylbenzaldehyde hydrazone]",46%,tox,
67.5 µM,0%,"O=C(O)c1ccc(N=Cc2cc(O)ccc2O)cc1 [Ex. 1, 4-[N-(2',5'-Dihydroxybenzylidene)amino]benzoic acid]",48%,tox,
13.1 µM,0%,"CN=Cc1cc(O)ccc1O [Ex. 2, 2,5-Dihydroxy-N-methylbenzaldimine]",21%,tox,
5.53 µM,25%,Oc1ccc(O)c(-c2ccccc2)c1 [2-Phenylhydroquinone],66%,,inhibition at 1 µg/mL (hela cells; [3]): 11%
47.7 µM,0%,"Oc1ccc(O)c(C=NN2CCCCC2)c1 [Ex. 10, 2,5-Dihydroxy-N-piperidinobenzaldimine]",,,
2.38 µM,0%,"CN1CCN(N=Cc2cc(O)ccc2O)CC1 [Ex. 12, 2,5-Dihydroxy-N-(4'-methylpiperazino)benzaldimine]",21%,tox,
77.9 µM,0%,"O=C(O)c1cccc(N=Cc2cc(O)ccc2O)c1 [3-[-(2',5'-Dihydroxybenzylidene)amino]benzoic acid]",44%,tox,
7.48 µM,0%,"Oc1ccc(O)c(C=NCc2ccccc2)c1 [Ex. 3, N-Benzyl-2,5-dihydroxybenzaldimine]",28%,tox,
27.3 µM,0%,"O=C(O)c1cc(N=Cc2cc(O)ccc2O)ccc1O [5-[N-(2',5'-Dihydroxybenzylidene)amino]-2-hydroxybenzoic acid]",51%,tox,
95.6 µM,0%,"CCCCCCN=Cc1cc(O)ccc1O [Ex. 6, N-Hexyl-2,5-dihydroxybenzaldimine]",18%,tox,
74.2 µM,0%,"CCN=Cc1cc(O)ccc1O [Ex. 7, N-Ethyl-2,5-hydroxybenzaldimine]",28%,tox,
17.4 µM,0%,"Oc1ccc(O)c(C=NN2CCCCCC2)c1 [N-Homopiperidino-2,5-dihydroxybenzaldimine]",,,EGF stimulation % inhibition at 5 μg/ml (hela cells; [4]): tox
17.8 µM,61%,"O=C(O)c1ccc(NCc2cc(O)ccc2O)cc1 [4-[N-(2',5'-Dihydroxybenzyl)amino]benzoic acid]",36%,tox,
89.3 µM,,"Oc1ccc(O)c(C=Nc2ccccc2)c1 [2,5-Dihydroxy-N-phenylbenzaldimine]",24%,tox,
55.1 µM,,"Oc1ccc(N=Cc2cc(O)ccc2O)cc1 [2,5-Dihydroxy-N-(4'-hydroxyphenyl)benzaldimine]",39%,tox,

# — patent US5519018A, “Substituted phenols and their use for the treatment of disorders caused by cell proliferation” (Behringwerke Aktiengesellschaft, priority 1992, dated 1996)
